Assay [1] relates to human moDCs naturally expressing CCR7. In words: 3D chemotaxis, time-lapse recording of human moDCs in Collagen I (chemotactic index). The class given is cell-based. The method, then: Buffy coats were obtained from Rigshospitalet Copenhagen, as anonymous material, with written informed consent from the donors. The local ethics committee at Faculty of Health and Medical Sciences at the University of Copenhagen (Research Ethics Committee for Sund and Science, University of Copenhagen) found the project exempt from approval. DCs were prepared from human peripheral blood mononuclear cells (PBMC) isolated from buffy coats by centrifugation on a Lymphoprep gradient as previously described. Briefly, monocytes were isolated by plastic adherence of PBMC. Adhered monocytes were subsequently cultured and differentiated into immature DCs by incubation with IL-4 (250 U/ml) and GM-CSF (1000 U/ml) for 6 days, followed by activation into mature DCs by incubation with IL-6 (1000 U/ml), IL-1β (1000 U/ml), TNF-α (1000 U/ml), and PGE2 (1 µg/ml) for an additional 2 days in the same medium.
Human DCs were cultured in X-vivo 15 medium with 2% human AB serum and glutamine. CHO-K1 pgsB-618 ATCC® CRL2241™ [24] and CHO-K1 cells were grown in RPMI with 10% FBS and Penicillin/Streptomycin. HS^−/− (CHO EXTL 2/3 −/−), CS^−/− (CSGALNACT 1/2^−/− CHSY1^−/−), 5xKO (GalNAc-T1, 2, 4, 7 and 10 −/−) and WT CHO suspension cells were grown in suspension in 1:1 of EX-Cell CD CHO fusion media and Balanced CD CHO growth A medium supplemented with 2% glutamine and Penicillin/Streptomycin. Cells were kept in a humidified incubator at 37 °C, 5% CO2.
Chemotaxis assays were conducted as previously described. Briefly, mature human moDCs were left to acclimatize in medium for 30 min at room temperature (RT) upon defrosting, before assay start. DCs were seeded in Bovine Collagen I mixture prepared by mixing 10 µl Na2HCO3 (7.5%), 20 µl MEM (10×), 150 µl PureCol and 90 µl DCs dissolved in X-vivo 15 medium (2 × 10^6 cells/ml). After incubation for 45 min in a humidified incubator at 37 °C (5% CO2), the source and sink reservoirs were filled according to the manufacturer’s instructions and chemotaxis was tracked in a time-lapse microscope with a humidified temperature controlled stage incubator for 12 h at a 2 min interval. Cell migration (approximately 20–40 cells per viewing field) was tracked using a commercial tracking program (Autozell) and subsequently analyzed to get a population-based chemotactic index (CI) value (MATLAB). CI is a measure of net translocation distance to the source relative to total distance traveled and was thus calculated as the ratio of the distance traveled in the direction of the gradient over the total distance traveled and therefore is a conservative measure of the directedness of cell migration.

For the next assay, the system named is CCR6. Briefly: Gαi signaling, BRET cAMP assay at CCR6 in CHO cells. The class given is cell-based. The note with it: CCL20 + 10 µM TP71-111, CHO cells, n = 3. Here is the method:
For cAMP assays, adherent CHO cells were transfected using lipofectamine while suspension cells were transfected using the FectoPro method. Cells were seeded in a 6-well plate, either 500,000 (adherent cells) or 200,000 (suspension cells) cells/well. The next day the cells were transiently transfected with vectors encoding the human CCR7 and CAMYEL sensor (cAMP sensor using YFP-Epac-RLuc) in a 1:5 ratio using lipofectamine (6 µl/well) or FectoPro (4 µl/well). Lipofectamine transfections were terminated by changing to 2 ml fresh cultivation medium after 5 h, while Fectopro transfection was terminated after 3 h by adding 2.5 ml fresh cultivation medium and 2 µl FectoPro Boost reagent per well. The cells were incubated under standard cultivation conditions overnight. […] Emission signal from Rluc and eYFP was measured using the Envision machine at 530 and 480 nm and the BRET signal determined as the ratio between (eYFP/Rluc).
Supplementary file 18_2021_3930_MOESM2_ESM.png: Supplementary file2 C21TP also boosts signaling of the DC expressed chemokine receptor CCR6. […] B) CCL20-induced CCR6 Gαi –signaling in CHO cells quantified using the BRET Based cAMP assay. […] Statistical significance was calculated using two-way ANOVA with Sidek’s correction for multiple test. *P<0.05, **P <0.01, ***P <0.001, ns, not significant (PNG 878 KB)
In general terms: In BRET a luciferase serves as donor, and the signal depends on an acceptor being close.

A further assay deals with CCR7 (primary T cells). The note with it: heterologous competition binding, apparent affinity; cited from earlier work. An excerpt: In the absence of peptide, CCL19 and CCL21 contact CCR7 in different manners. The interaction of CCL21 depends on residues in the top of TM-3, -4 and -5 that are not important for CCL19 interaction with CCR7. The binding of these two chemokines induce different structural changes in CCR7 to disrupt old and create new hydrogen bonds. CCL21 binding to CCR7 is believed to involve movements within the majority of helical domains (TM2, -3, -4, -5, -6, and -7), whereas the changes induced by CCL19 are restricted to regions of TM3, -5, and -6 [37]. The conformational changes in CCR7 ind ...

The next assay concerns Collagen I. The note with it: cited from earlier work. An excerpt:
In the current study we have used Collagen I in the 3D chemotaxis assays. Collagen I has low affinity for CCL21 [31]. Matrigel on the other hand binds CCL21 well. As CCL21 is immobilized in vivo [20], to evaluate the full effect of C21TP on dendritic cell migration, experiments using Matrigel would need to be conducted. Such assay could reveal if C21TP affect the interaction between CCR7 and immobilized CCL21 where the basic tail is participating in surface tethering and potentially unable to engage in steric hindrance of CCR7. Again, since boosting of in vitro signaling occurred in both p ...

For “TP71-111: free CCL21 C-terminal peptide, residues 71–111 (41 amino acids, positively charged) (PSPQKPAQGCRKDRGASKTGKKGKGSKGCKRTERSQTPKGP; UniProt O00585 94-134, looked up, fragment)”, the “increase of CCL19-induced DC chemotaxis” value in assay [1] (10 nM CCL19 + 10 µM TP71-111, human moDCs, n = 3–6) is on record as “significantly increased in the presence of 10 µM C21TP (TP71-111), by approximately twofold”. The “fold boost of CCL21-induced DC chemotaxis (immune cell recruiting activity)” value in assay [1] (10 nM CCL21, highest C21TP concentration 10 µM (0.1–10 µM tested), human moDCs, 12 h tracking, 37 °C, n = 3–11) is “up to 25 fold”. The “boosting of CCL21-induced DC chemotaxis” value in assay [1] (10 nM CCL21, peptide 10 µM (0.1–10 µM in the dose series), human moDCs) was “boosted significantly by the C21TP in a dose-dependent manner”. In assay [1] (C21TP without chemokine, data not shown), the “DC chemotaxis by C21TP alone” value is recorded as “did not induce DC chemotaxis”. The “boosting of CCL20-induced signaling at CCR6” value in the assay with CCR6 is “very similar to the boosting observed with CCL19 acting at CCR7”; in the assay on CCR6 (listed as C21TP), “also boosts CCL20 signaling via CCR6”.

B1: CCL21: full-length chemokine (residues 1–111), CCR7 ligand, from R&D Systems (protein, UniProt O00585 24-134, looked up)
C-C motif chemokine 21: SDGGAQDCCLKYSQRKIPAKVVRSYRKQEPSLGCSIPAILFLPRKRSQAELCADPKELWVQQLMQHLDKTPSPQKPAQGCRKDRGASKTGKKGKGSKGCKRTERSQTPKGP
With B1, in assay [1] (10 nM chemokine, no peptide, human moDCs), the “chemotaxis towards chemokine alone” value is reported as “very weak chemotactic cue”. Also, the “fold lower binding affinity of CCL21 in primary T cells” value in the assay on CCR7 (primary T cells) was “sixfold lower binding affinity”. Also, in the assay with Collagen I, the “affinity of Collagen I for CCL21” value is “low affinity”.

The values above are taken from paper PMC8558179, “The C-terminal peptide of CCL21 drastically augments CCL21 activity through the dendritic cell lymph node homing receptor CCR7 by interaction with the receptor N-terminus” (Cellular and Molecular Life Sciences: CMLS, 2021).
